The results in this text go back to ChEMBL document CHEMBL3826948, “Alkyl substituted aminal derivatives of HCV NS5A inhibitor MK-8742” (Bioorg Med Chem Lett, 2016).

What all share (conditions): Hepatitis C virus
A short description of assay [1]: Inhibition of NS5A in HCV genotype 1a assessed as replicon RNA levels by real time PCR based cell based assay. Also on record: species or system Hepatitis C virus subtype 1a. In general terms: A replicon is a self-replicating genome or part of one, used to study replication in cells.
Assay [2] in a line: Inhibition of NS5A in HCV genotype 1b assessed as replicon RNA levels by real time PCR based cell based assay. Also on record: species or system Hepatitis C virus subtype 1b.
The nature of assay [3]: Inhibition of NS5A in HCV genotype 2b assessed as replicon RNA levels by real time PCR based cell based assay. Also on record: species or system Hepatitis C virus subtype 2b.
A short description of assay [4]: Inhibition of NS5A in HCV genotype 3a assessed as replicon RNA levels by real time PCR based cell based assay. Also on record: species or system Hepatitis C virus subtype 3a.
Assay [5] is described as follows: Inhibition of NS5A in HCV genotype 2a assessed as replicon RNA levels by real time PCR based cell based assay. Also noted: species or system Hepatitis C virus subtype 2a.
The nature of assay [6]: Inhibition of NS5A in HCV genotype 4a assessed as replicon RNA levels by real time PCR based cell based assay. Also on record: species or system Hepatitis C virus subtype 4a.

Regarding `COC(=O)N[C@H](C(=O)N1CCC[C@H]1c1ncc(-c2ccc3c(c2)OC(CC2CC2)n2c-3cc3cc(-c4cnc([C@@H]5CCCN5C(=O)[C@@H](NC(=O)OC)C(C)C)[nH]4)ccc32)[nH]1)C(C)C` (mixture of isomers), the figures for the EC50 in assay [1], in assay [2] and in assay [3] were 0.01 nM, 0.01 nM and 9 nM, respectively.
Turning to `CCCCCC1CC2CCC1CC2C1Oc2cc(-c3cnc([C@@H]4CCCN4C(=O)[C@@H](NC(=O)OC)C(C)C)[nH]3)ccc2-c2cc3cc(-c4cnc([C@@H]5CCCN5C(=O)[C@@H](NC(=O)OC)C(C)C)[nH]4)ccc3n21` (mixture of isomers), the results for the EC50 in assay [1], in assay [3] and in assay [4] were 0.02 nM, 2 nM and more than 17 nM, respectively.
In the same order, the values of `COC(=O)N[C@H](C(=O)N1CCC[C@H]1c1ncc(-c2cc(F)c3c(c2)OC(C2CC24CCCC4)n2c-3cc3cc(-c4cnc([C@@H]5CCCN5C(=O)[C@@H](NC(=O)OC)C(C)C)[nH]4)ccc32)[nH]1)C(C)C` (stereo not given in full) are 0.006 nM, more than 17 nM and more than 17 nM.
In the same order, the values of `COC(=O)N[C@H](C(=O)N1CCC[C@H]1c1ncc(-c2ccc3c(c2)OC(CCC(=O)O)n2c-3cc3cc(-c4cnc([C@@H]5CCCN5C(=O)[C@@H](NC(=O)OC)C(C)C)[nH]4)ccc32)[nH]1)C(C)C` (mixture of isomers) are 8 nM, 124 nM and 33 nM.
Turning to `COC(=O)N[C@H](C(=O)N1CCC[C@H]1c1ncc(-c2ccc3c(c2)OC(CCC#N)n2c-3cc3cc(-c4cnc([C@@H]5CCCN5C(=O)[C@@H](NC(=O)OC)C(C)C)[nH]4)ccc32)[nH]1)C(C)C` (mixture of isomers), the EC50 in assay [1] came out at 0.03 nM; in assay [3], 8 nM; in assay [4] it was 1 nM.
Take `COC(=O)N[C@H](C(=O)N1CCC[C@H]1c1ncc(-c2cc(F)c3c(c2)OC(C2CC2C)n2c-3cc3cc(-c4cnc([C@@H]5CCCN5C(=O)[C@@H](NC(=O)OC)C(C)C)[nH]4)ccc32)[nH]1)C(C)C` (stereo not given in full): the figures for the EC50 in assay [1], in assay [3] and in assay [4] were 0.006 nM, 2 nM and 0.09 nM, respectively.
On the same counts, the results for `COCC1CC1C1Oc2cc(-c3cnc([C@@H]4CCCN4C(=O)[C@@H](NC(=O)OC)C(C)C)[nH]3)cc(F)c2-c2cc3cc(-c4cnc([C@@H]5CCCN5C(=O)[C@@H](NC(=O)OC)C(C)C)[nH]4)ccc3n21` (stereo not given in full) are 0.009 nM, 4 nM and 0.7 nM.
In the case of `COC(=O)N[C@H](C(=O)N1CCC[C@H]1c1ncc(-c2ccc3c(c2)cc2n3C3(CCCC3)Oc3cc(-c4cnc([C@@H]5C[C@@H](F)CN5C(=O)[C@@H](NC(=O)OC)C(C)C)[nH]4)cc(F)c3-2)[nH]1)C(C)C`, the EC50 amounted to 0.005 nM in assay [1]; 0.002 nM in assay [2]; 0.004 nM in assay [5]; 59 nM in assay [3]; 3 nM in assay [4]; 0.04 nM in assay [6].
With `COC(=O)CCC1Oc2cc(-c3cnc([C@@H]4CCCN4C(=O)[C@@H](NC(=O)OC)C(C)C)[nH]3)ccc2-c2cc3cc(-c4cnc([C@@H]5CCCN5C(=O)[C@@H](NC(=O)OC)C(C)C)[nH]4)ccc3n21` (mixture of isomers), the EC50 in assay [1] was 0.02 nM; in assay [3], 9 nM; in assay [4] it was 4 nM.
Take `COC(=O)N[C@H](C(=O)N1CCC[C@H]1c1ncc(-c2ccc3c(c2)OC(C2CCC4(CC2)CC4)n2c-3cc3cc(-c4cnc([C@@H]5CCCN5C(=O)[C@@H](NC(=O)OC)C(C)C)[nH]4)ccc32)[nH]1)C(C)C` (stereo not given in full): the EC50 in assay [1] was less than 0.02 nM; in assay [2] it was 0.02 nM; in assay [5], less than 0.2 nM; in assay [3], 2 nM; in assay [4], 0.6 nM; in assay [6] it was less than 0.2 nM.
Take `COC(=O)N[C@H](C(=O)N1CCC[C@H]1c1ncc(-c2ccc3c(c2)OC(CC(F)(F)F)n2c-3cc3cc(-c4cnc([C@@H]5CCCN5C(=O)[C@@H](NC(=O)OC)C(C)C)[nH]4)ccc32)[nH]1)C(C)C` (mixture of isomers): the concentration for a half-maximal effect (EC50) in assay [1] was determined as 0.006 nM; in assay [2], 0.002 nM; in assay [5], 0.02 nM; in assay [3], 5 nM; in assay [4] it was 0.3 nM; in assay [6] it was 0.02 nM.
Regarding `CNC(=O)C1CC1C1Oc2cc(-c3cnc([C@@H]4CCCN4C(=O)[C@@H](NC(=O)OC)C(C)C)[nH]3)cc(F)c2-c2cc3cc(-c4cnc([C@@H]5CCCN5C(=O)[C@@H](NC(=O)OC)C(C)C)[nH]4)ccc3n21` (stereo not given in full), the results for the EC50 in assay [1], in assay [3] and in assay [4] were 1 nM, 52 nM and 10 nM, respectively.
In the same order, the values of `COC(=O)N[C@H](C(=O)N1CCC[C@H]1c1ncc(-c2cc(F)c3c(c2)OC(C2CC2C(=O)N(C)C)n2c-3cc3cc(-c4cnc([C@@H]5CCCN5C(=O)[C@@H](NC(=O)OC)C(C)C)[nH]4)ccc32)[nH]1)C(C)C` (stereo not given in full) are 0.1 nM, 9 nM and 4 nM.
Regarding `COC(=O)N[C@H](C(=O)N1CCC[C@H]1c1ncc(-c2ccc3c(c2)cc2n3C3(CCC3)Oc3cc(-c4cnc([C@@H]5C[C@@H](F)CN5C(=O)[C@@H](NC(=O)OC)C(C)C)[nH]4)cc(F)c3-2)[nH]1)C(C)C`, the EC50 in assay [1] was determined as 0.002 nM; in assay [2], 0.0005 nM; in assay [5] it was 0.03 nM; in assay [3], 44 nM; in assay [4], 0.6 nM; in assay [6], 0.04 nM.
Consider `COC(=O)N[C@H](C(=O)N1CCC[C@H]1c1ncc(-c2cc(F)c3c(c2)OC(C2CC2C#N)n2c-3cc3cc(-c4cnc([C@@H]5CCCN5C(=O)[C@@H](NC(=O)OC)C(C)C)[nH]4)ccc32)[nH]1)C(C)C` (stereo not given in full), for which the EC50 stood at 0.005 nM in assay [1], 8 nM in assay [3] and 0.06 nM in assay [4].
For the compound `CCCC1Oc2cc(-c3cnc([C@@H]4CCCN4C(=O)[C@@H](NC(=O)OC)C(C)C)[nH]3)ccc2-c2cc3cc(-c4cnc([C@@H]5CCCN5C(=O)[C@@H](NC(=O)OC)C(C)C)[nH]4)ccc3n21` (stereo not given in full), the EC50 in assay [1] came out at 0.003 nM; in assay [2], 0.002 nM; in assay [5], 0.003 nM; in assay [3] it was 3 nM; in assay [4], 0.3 nM; in assay [6] it was 0.02 nM.
As to `CCCCC1Oc2cc(-c3cnc([C@@H]4CCCN4C(=O)[C@@H](NC(=O)OC)C(C)C)[nH]3)ccc2-c2cc3cc(-c4cnc([C@@H]5CCCN5C(=O)[C@@H](NC(=O)OC)C(C)C)[nH]4)ccc3n21` (stereo not given in full), the EC50 in assay [1] is 0.002 nM; in assay [2], 0.002 nM; in assay [5] it was 0.007 nM; in assay [3], 4 nM; in assay [4] it was 0.2 nM; in assay [6], 0.005 nM.
Regarding `COC(=O)N[C@H](C(=O)N1CCC[C@H]1c1ncc(-c2ccc3c(c2)OC(C2CCOCC2)n2c-3cc3cc(-c4cnc([C@@H]5CCCN5C(=O)[C@@H](NC(=O)OC)C(C)C)[nH]4)ccc32)[nH]1)C(C)C` (mixture of isomers), the EC50 is 0.009 nM in assay [1]; 0.004 nM in assay [2]; 0.03 nM in assay [5]; 0.8 nM in assay [4]; 0.04 nM in assay [6].
Consider `COC(=O)N[C@H](C(=O)N1CCC[C@H]1c1ncc(-c2ccc3c(c2)OC(CC2CCCC2)n2c-3cc3cc(-c4cnc([C@@H]5CCCN5C(=O)[C@@H](NC(=O)OC)C(C)C)[nH]4)ccc32)[nH]1)C(C)C` (mixture of isomers), for which the EC50 in assay [5] came out at 4 nM.
As for `CCCCCCC1Oc2cc(-c3cnc([C@@H]4CCCN4C(=O)[C@@H](NC(=O)OC)C(C)C)[nH]3)ccc2-c2cc3cc(-c4cnc([C@@H]5CCCN5C(=O)[C@@H](NC(=O)OC)C(C)C)[nH]4)ccc3n21` (stereo not given in full), the EC50 turned out to be 0.001 nM in assay [1]; 0.001 nM in assay [2]; 0.01 nM in assay [5]; 12 nM in assay [3]; 0.2 nM in assay [4]; 0.02 nM in assay [6].
As for `COC(=O)N[C@H](C(=O)N1CCC[C@H]1c1ncc(-c2ccc3c(c2)OC(CC2CCCCC2)n2c-3cc3cc(-c4cnc([C@@H]5CCCN5C(=O)[C@@H](NC(=O)OC)C(C)C)[nH]4)ccc32)[nH]1)C(C)C` (mixture of isomers), the EC50 in assay [1] was 0.006 nM; in assay [2] it was 0.002 nM; in assay [5], 0.09 nM; in assay [4], 3 nM; in assay [6] it was 0.04 nM.
Turning to `COC(=O)N[C@H](C(=O)N1CCC[C@H]1c1ncc(-c2ccc3c(c2)OC(C2CCCC2)n2c-3cc3cc(-c4cnc([C@@H]5CCCN5C(=O)[C@@H](NC(=O)OC)C(C)C)[nH]4)ccc32)[nH]1)C(C)C` (stereo not given in full), the EC50 in assay [1] worked out at 0.002 nM; in assay [2], 0.003 nM; in assay [5], 0.07 nM; in assay [3], 2 nM; in assay [4] it was 0.3 nM; in assay [6], 0.005 nM.
In the case of `COC(=O)N[C@H](C(=O)N1CCC[C@H]1c1ncc(-c2cc(F)c3c(c2)OC(C2CC2(C)C)n2c-3cc3cc(-c4cnc([C@@H]5CCCN5C(=O)[C@@H](NC(=O)OC)C(C)C)[nH]4)ccc32)[nH]1)C(C)C` (stereo not given in full), the EC50 in assay [1] turned out to be 0.03 nM.
As for `COC(=O)N[C@H](C(=O)N1CCC[C@H]1c1ncc(-c2ccc3c(c2)cc2n3C3(CCCCC3)Oc3cc(-c4cnc([C@@H]5C[C@@H](F)CN5C(=O)[C@@H](NC(=O)OC)C(C)C)[nH]4)cc(F)c3-2)[nH]1)C(C)C`, the EC50 in assay [1] was 0.008 nM; in assay [2] it was 0.001 nM; in assay [5], 0.2 nM; in assay [3], 95 nM; in assay [4] it was 6 nM; in assay [6], 0.2 nM.
On to `COC(=O)N[C@H](C(=O)N1CCC[C@H]1c1ncc(-c2cc(F)c3c(c2)OC([C@H]2C[C@@H]2c2ccccc2)n2c-3cc3cc(-c4cnc([C@@H]5CCCN5C(=O)[C@@H](NC(=O)OC)C(C)C)[nH]4)ccc32)[nH]1)C(C)C` (stereo not given in full), for which the figures for the EC50 in assay [1], in assay [3] and in assay [4] were 0.005 nM, 4 nM and 0.03 nM, respectively.
On the same counts, the results for `COC(=O)N[C@H](C(=O)N1CCC[C@H]1c1ncc(-c2cc(F)c3c(c2)OC(C2CC2C(=O)O)n2c-3cc3cc(-c4cnc([C@@H]5CCCN5C(=O)[C@@H](NC(=O)OC)C(C)C)[nH]4)ccc32)[nH]1)C(C)C` (stereo not given in full) are 8 nM, 525 nM and 202 nM.

Usually EC50 stands for the concentration needed to bring the measured effect to its halfway point.
